≈ marks a conversion by molar mass, not a printed value. Calls of active or inactive are those of the source. No cut-off for these calls is given here.
Experiments:
[1] = target: T1, Tyrosine-protein kinase BTK (Homo sapiens, UniProt Q06187); experiment: Inhibition of N-terminal DYKDDDDK tagged and biotinylated BTK activated form (unknown origin) using FITC-labeled Srctide substrate and ATP by microfluidic mobility shift assay
[2] = target: T1, Tyrosine-protein kinase BTK; experiment: Inhibition of His-tagged lambda phosphatase pre-treated N-terminal DYKDDDDK tagged and biotinylated BTK unactivated form (unknown origin) using FITC-labeled Srctide substrate and ATP by microfluidic mobility shift assay
[3] = Apparent permeability in human Caco2 cells; assay type: ADME, cell-based; conditions: Caco-2
[4] = target: Tyrosine-protein kinase SYK (Homo sapiens, UniProt P43405); experiment: Inhibition of SYK (unknown origin) using FITC-labeled Blk/Lyntide substrate and ATP by microfluidic mobility shift assay
[5] = target: T1, Tyrosine-protein kinase BTK; experiment: Inhibition of BTK (unknown origin) using FITC-labeled Srctide substrate and ATP by microfluidic mobility shift assay
[6] = Stability in human microsomes; assay type: ADME, Microsome
[7] = Stability in mouse microsomes; assay type: ADME, Microsome
[8] = AUC (0 to infinity) in ICR mouse at 10 mg/kg, po; assay type: ADME, organism-based; design: dose 10 mg/kg, time infinity, route oral; conditions: in vivo
[9] = target: T1, Tyrosine-protein kinase BTK; experiment: Inhibition of anti-IgM antibody stimulated BTK Tyr223 autophosphorylation in human Ramos cells at 30 nM pre-incubated for 1 hr followed by anti-IgM stimulation for 10 mins by Western blotting; assay type: cell-based
[10] = Kinetic solubility in phosphate buffer at pH 7.4 incubated for 1 hr at room temperature by LC-UV or LC-MS/MS method; assay type: physicochemical; conditions: read-out: Kinetic_solubility
[11] = Half life in ICR mouse at 2 mg/kg, iv; assay type: ADME, organism-based; conditions: in vivo
[12] = Half life in ICR mouse at 10 mg/kg, po; assay type: ADME, organism-based; conditions: in vivo
[13] = Tmax in ICR mouse at 2 mg/kg, iv; assay type: ADME, organism-based; conditions: in vivo
[14] = Tmax in ICR mouse at 10 mg/kg, po; assay type: ADME, organism-based; conditions: in vivo
[15] = Cmax in ICR mouse at 2 mg/kg, iv; assay type: ADME, organism-based; design: dose 2 mg/kg, route intravenous; conditions: in vivo
[16] = Cmax in ICR mouse at 10 mg/kg, po; assay type: ADME, organism-based; design: dose 10 mg/kg, route oral; conditions: in vivo
[17] = AUC (0 to t) in ICR mouse at 2 mg/kg, iv; assay type: ADME, organism-based; conditions: in vivo
[18] = AUC (0 to t) in ICR mouse at 10 mg/kg, po; assay type: ADME, organism-based; conditions: in vivo
[19] = AUC (0 to infinity) in ICR mouse at 2 mg/kg, iv; assay type: ADME, organism-based; design: dose 2 mg/kg, route intravenous, time infinity; conditions: in vivo
[20] = Apparent volume of distribution in ICR mouse at 2 mg/kg, iv; assay type: ADME, organism-based; conditions: in vivo, read-out: Vz
[21] = Clearance in ICR mouse at 2 mg/kg, iv; assay type: ADME, organism-based; conditions: in vivo
[22] = MRT (0 to infinity) in ICR mouse at 2 mg/kg, iv; assay type: ADME, organism-based; conditions: in vivo
[23] = MRT (0 to infinity) in ICR mouse at 10 mg/kg, po; assay type: ADME, organism-based; conditions: in vivo
[24] = Oral bioavailability in ICR mouse at 10 mg/kg; assay type: ADME, organism-based; conditions: in vivo
[25] = target: T2, Cytoplasmic tyrosine-protein kinase BMX (Homo sapiens) (UniProt P51813); experiment: Inhibition of N-terminal GST-fused human full length BMX at 0.3 uM
T2 sequence (whole entry): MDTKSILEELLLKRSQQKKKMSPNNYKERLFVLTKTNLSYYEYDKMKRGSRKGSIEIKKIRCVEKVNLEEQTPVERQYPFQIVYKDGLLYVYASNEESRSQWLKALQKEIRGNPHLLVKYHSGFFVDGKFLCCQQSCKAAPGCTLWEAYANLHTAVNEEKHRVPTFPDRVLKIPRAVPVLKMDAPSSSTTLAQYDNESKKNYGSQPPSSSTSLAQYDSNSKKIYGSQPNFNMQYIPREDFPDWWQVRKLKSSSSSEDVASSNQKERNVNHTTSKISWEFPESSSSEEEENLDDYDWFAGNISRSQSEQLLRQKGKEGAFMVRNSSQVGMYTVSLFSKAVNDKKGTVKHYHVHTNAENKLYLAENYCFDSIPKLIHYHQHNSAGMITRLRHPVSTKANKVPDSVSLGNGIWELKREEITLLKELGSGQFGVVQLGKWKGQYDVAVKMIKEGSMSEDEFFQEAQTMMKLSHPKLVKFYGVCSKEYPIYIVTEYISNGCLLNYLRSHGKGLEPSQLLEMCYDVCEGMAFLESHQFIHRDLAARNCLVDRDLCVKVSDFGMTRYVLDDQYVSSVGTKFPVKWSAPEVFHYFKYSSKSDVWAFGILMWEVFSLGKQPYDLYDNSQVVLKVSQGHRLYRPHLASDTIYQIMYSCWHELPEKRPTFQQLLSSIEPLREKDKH

[26] = target: T3, Tyrosine-protein kinase Tec (Homo sapiens) (UniProt P42680); experiment: Inhibition of N-terminal GST-fused human TEC catalytic domain (359 to 631 amino acids) at 0.3 uM
T3 sequence (whole entry): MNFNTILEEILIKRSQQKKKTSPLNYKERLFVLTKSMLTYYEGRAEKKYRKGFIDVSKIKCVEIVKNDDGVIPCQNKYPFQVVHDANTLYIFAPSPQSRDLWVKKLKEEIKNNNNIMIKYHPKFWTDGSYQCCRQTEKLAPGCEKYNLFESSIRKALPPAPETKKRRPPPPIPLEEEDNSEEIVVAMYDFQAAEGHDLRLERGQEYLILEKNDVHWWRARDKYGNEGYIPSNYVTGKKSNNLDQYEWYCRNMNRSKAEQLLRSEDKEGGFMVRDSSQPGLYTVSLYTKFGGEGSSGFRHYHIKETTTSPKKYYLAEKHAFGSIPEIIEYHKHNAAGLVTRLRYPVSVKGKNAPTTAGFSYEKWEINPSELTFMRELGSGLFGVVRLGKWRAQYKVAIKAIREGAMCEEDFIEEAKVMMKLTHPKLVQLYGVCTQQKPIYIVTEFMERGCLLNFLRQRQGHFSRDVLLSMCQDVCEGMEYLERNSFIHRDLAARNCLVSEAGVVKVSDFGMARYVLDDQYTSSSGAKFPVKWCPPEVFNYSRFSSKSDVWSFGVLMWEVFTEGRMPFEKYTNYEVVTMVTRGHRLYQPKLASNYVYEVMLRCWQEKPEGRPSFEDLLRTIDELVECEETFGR

[27] = test system: Mus musculus; experiment: Inhibition of passive cutaneous anaphylaxis reaction in anti-DNP IgE sensitized mouse model of passive cutaneous anaphylaxis at 30 mg/kg, po dosed 46 hrs before DNP-BSA/dye mixture injection and measured after 30 mins; assay type: functional
[28] = target: Voltage-gated inwardly rectifying potassium channel KCNH2 (Homo sapiens, UniProt Q12809); experiment: Inhibition of human ERG
Chain of Voltage-gated inwardly rectifying potassium channel KCNH2 (Q12809 whole entry): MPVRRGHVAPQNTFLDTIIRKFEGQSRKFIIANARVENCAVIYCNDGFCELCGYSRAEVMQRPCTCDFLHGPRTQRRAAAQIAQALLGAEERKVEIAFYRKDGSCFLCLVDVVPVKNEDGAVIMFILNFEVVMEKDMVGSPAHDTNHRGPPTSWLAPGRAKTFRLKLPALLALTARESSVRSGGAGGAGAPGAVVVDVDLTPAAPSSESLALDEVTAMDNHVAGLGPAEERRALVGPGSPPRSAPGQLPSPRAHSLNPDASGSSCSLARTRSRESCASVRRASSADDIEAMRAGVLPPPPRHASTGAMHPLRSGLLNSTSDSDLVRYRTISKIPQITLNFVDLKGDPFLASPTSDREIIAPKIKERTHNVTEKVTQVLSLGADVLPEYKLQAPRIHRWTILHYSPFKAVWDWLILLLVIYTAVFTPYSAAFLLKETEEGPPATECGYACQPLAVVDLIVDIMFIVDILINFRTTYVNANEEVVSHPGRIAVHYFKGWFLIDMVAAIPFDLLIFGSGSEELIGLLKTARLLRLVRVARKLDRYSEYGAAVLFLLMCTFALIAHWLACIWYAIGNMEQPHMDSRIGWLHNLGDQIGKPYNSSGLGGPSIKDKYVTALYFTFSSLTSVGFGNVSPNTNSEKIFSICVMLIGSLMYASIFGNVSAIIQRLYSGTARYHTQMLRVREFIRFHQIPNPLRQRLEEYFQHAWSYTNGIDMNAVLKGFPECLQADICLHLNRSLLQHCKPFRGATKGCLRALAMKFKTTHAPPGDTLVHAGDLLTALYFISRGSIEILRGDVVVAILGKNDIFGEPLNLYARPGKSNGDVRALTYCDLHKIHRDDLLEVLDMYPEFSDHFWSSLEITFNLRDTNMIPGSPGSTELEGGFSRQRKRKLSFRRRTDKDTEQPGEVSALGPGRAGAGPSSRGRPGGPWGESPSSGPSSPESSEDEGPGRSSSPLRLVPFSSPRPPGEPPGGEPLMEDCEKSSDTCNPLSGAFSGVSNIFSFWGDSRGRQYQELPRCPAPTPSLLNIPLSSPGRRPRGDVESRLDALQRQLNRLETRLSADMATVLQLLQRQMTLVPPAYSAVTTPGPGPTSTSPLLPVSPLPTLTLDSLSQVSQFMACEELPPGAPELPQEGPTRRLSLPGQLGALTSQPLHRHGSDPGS

T1 sequence (Q06187 whole entry): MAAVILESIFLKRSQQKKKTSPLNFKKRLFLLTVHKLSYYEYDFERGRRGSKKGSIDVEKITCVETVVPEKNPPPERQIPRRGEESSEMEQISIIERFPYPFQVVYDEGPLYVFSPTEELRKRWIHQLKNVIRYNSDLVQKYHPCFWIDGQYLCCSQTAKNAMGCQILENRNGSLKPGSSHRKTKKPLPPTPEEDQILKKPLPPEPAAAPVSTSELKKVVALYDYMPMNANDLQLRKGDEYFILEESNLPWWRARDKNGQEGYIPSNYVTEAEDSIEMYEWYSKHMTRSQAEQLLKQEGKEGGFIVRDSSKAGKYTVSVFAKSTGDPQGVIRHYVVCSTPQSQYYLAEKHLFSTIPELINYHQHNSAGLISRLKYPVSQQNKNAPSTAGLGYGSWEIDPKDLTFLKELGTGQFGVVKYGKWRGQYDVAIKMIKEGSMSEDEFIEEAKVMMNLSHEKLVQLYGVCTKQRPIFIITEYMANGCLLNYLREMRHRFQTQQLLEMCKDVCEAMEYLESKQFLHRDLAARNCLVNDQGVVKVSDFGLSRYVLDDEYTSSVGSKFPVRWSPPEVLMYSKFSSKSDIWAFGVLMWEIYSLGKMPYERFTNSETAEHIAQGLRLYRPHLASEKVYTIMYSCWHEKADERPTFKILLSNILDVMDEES

Structure (SMILES): CC(C)(C)n1cc(Nc2nc(N)cc(-c3cccc(-n4ccc5cc(C6CC6)cc(F)c5c4=O)c3CO)n2)cn1
- IC50 [1]: 11 nM
- IC50 [2]: 0.6 nM
- Papp [3]: 5.7 ×10⁻⁶ cm/s

Structure (SMILES): CC(=O)c1cc(Nc2nc(N)cc(-c3cccc(-n4ccc5cc(C6CC6)cc(F)c5c4=O)c3CO)n2)cn1C
- IC50 [1]: 5.9 nM

Structure (SMILES): CC(C)(C)c1ccc(C(=O)Nc2cccc(-c3ccnc(Nc4ccc5cc[nH]c5c4)n3)c2)cc1
- IC50 [4]: > 10000 nM
- IC50 [5]: 52 nM
- Stability [6]: Unstable
- Stability [7]: Unstable

Structure (SMILES): Nc1cc(-c2cccc(-n3ccc4cc(C5CC5)cc(F)c4c3=O)c2CO)nc(Nc2cnn(C3(CO)CC3)c2)n1
- IC50 [1]: 12 nM
- IC50 [2]: 0.6 nM
- Papp [3]: 0.7 ×10⁻⁶ cm/s

Structure (SMILES): COc1cc(Nc2nccc(-c3cccc(NC(=O)c4ccc(C(C)(C)C)cc4)c3C)n2)cc(OC)c1OC
- IC50 [4]: > 10000 nM
- IC50 [5]: 6.1 nM
- Stability [6]: Unstable
- Stability [7]: Unstable

Structure (SMILES): Cc1c(NC(=O)c2ccc(C(C)(C)C)cc2)cccc1-c1ccnc(Nc2ccc(C(=O)N3CCOCC3)cc2)n1
- IC50 [4]: > 10000 nM
- Stability [6]: Unstable
- Stability [7]: Unstable

Structure (SMILES): Cn1cc(Nc2nc(N)cc(-c3cccc(-n4ccc5cc(C6CC6)cc(F)c5c4=O)c3CO)n2)cn1
- IC50 [1]: 3.7 nM
- IC50 [2]: 0.4 nM
- AUC(0-inf) [8]: 12800 ng·h/mL
- inhibition [9]: Active
- Papp [3]: 6.3 ×10⁻⁶ cm/s
- solubility kinetic at 1 h [10]: 18 µM (≈ 8.96 µg/mL)
- half-life [11]: 1.12 h
- half-life [12]: 0.96 h
- Tmax [13]: 4.98 min
- Tmax [14]: 0.5 h
- Cmax [15]: 2950 ng/mL
- Cmax [16]: 4540 ng/mL
- AUC(0-t) [17]: 3460 ng·h/mL
- AUC(0-t) [18]: 12700 ng·h/mL
- AUC(0-inf) [19]: 3480 ng·h/mL
- Vd [20]: 0.93 L/kg
- clearance [21]: 9.67 mL/min/kg
- MRT inf [22]: 1.13 h
- MRT inf [23]: 1.91 h
- bioavailability [24]: 73.7%

Structure (SMILES): COc1ccc(Nc2nc(N)cc(-c3cccc(-n4ccc5cc(C6CC6)cc(F)c5c4=O)c3CO)n2)cc1
- IC50 [1]: 39 nM
- IC50 [2]: 2.5 nM

Structure (SMILES): CC(C)(C)c1ccc(C(=O)Nc2cccc(-c3ccnc(Nc4ccc5cn[nH]c5c4)n3)c2)cc1
- IC50 [4]: 360 nM
- IC50 [5]: 7300 nM

Structure (SMILES): Cc1c(NC(=O)c2ccc(C(C)(C)C)cc2)cccc1-c1ccnc(Nc2ccc3cn[nH]c3c2)n1
- IC50 [4]: > 10000 nM
- IC50 [5]: 440 to 450 nM
- Stability [6]: Unstable
- Stability [7]: Unstable

Structure (SMILES): Cn1cc(Nc2nc(N)cc(-c3cccc(-n4ccc5cc(C6CC6)cc(F)c5c4=O)c3CO)n2)cc1C#N
- IC50 [1]: 20.2 nM

Structure (SMILES): Cn1ccc(Nc2nc(N)cc(-c3cccc(-n4ccc5cc(C6CC6)cc(F)c5c4=O)c3CO)n2)n1
- IC50 [1]: 245 nM
- IC50 [2]: 13.9 nM

Structure (SMILES): Nc1cc(-c2cccc(-n3ccc4cc(C5CC5)cc(F)c4c3=O)c2CO)nc(Nc2cnn(CC(F)F)c2)n1
- IC50 [1]: 3.3 nM
- IC50 [2]: 0.2 nM
- Papp [3]: 3.1 ×10⁻⁶ cm/s
- solubility kinetic at 1 h [10]: 2.1 µM (≈ 1.15 µg/mL)

Structure (SMILES): Cn1ccc(Nc2nc(N)cc(-c3cccc(-n4ccc5cc(C6CC6)cc(F)c5c4=O)c3CO)n2)c1
- IC50 [1]: 62 nM
- IC50 [2]: 17 nM

Structure (SMILES): Nc1cc(-c2cccc(-n3ccc4cc(C5CC5)cc(F)c4c3=O)c2CO)nc(Nc2ccc(N3CCOCC3)cc2)n1
- IC50 [1]: 12.9 nM
- IC50 [2]: 0.6 nM

Structure (SMILES): Nc1cc(-c2cccc(-n3ccc4cc(C5CC5)cc(F)c4c3=O)c2CO)nc(Nc2cnn(C3CC3)c2)n1
- IC50 [1]: 2.8 nM
- AUC(0-inf) [8]: 19100 ng·h/mL
- inhibition [9]: Active
- Papp [3]: 6.9 ×10⁻⁶ cm/s
- solubility kinetic at 1 h [10]: 9.8 µM (≈ 5.13 µg/mL)
- inhibition [25]: 70%
- inhibition [26]: 92%
- inhibition in vivo at 30 mg/kg [27]: 46%
- inhibition (INH) [28]: Active
- half-life [11]: 1.09 h
- half-life [12]: 1.31 h
- Tmax [13]: 4.98 min
- Tmax [14]: 1 h
- Cmax [15]: 2260 ng/mL
- Cmax [16]: 5940 ng/mL
- AUC(0-t) [17]: 3150 ng·h/mL
- AUC(0-t) [18]: 18700 ng·h/mL
- AUC(0-inf) [19]: 3170 ng·h/mL
- Vd [20]: 1 L/kg
- clearance [21]: 10.5 mL/min/kg
- MRT inf [22]: 1.36 h
- MRT inf [23]: 2.24 h
- bioavailability [24]: 120%

Structure (SMILES): Cc1c(NC(=O)c2ccc(C(C)(C)C)cc2)cccc1-c1ccnc(Nc2ccc3[nH]ncc3c2)n1
- IC50 [4]: > 10000 nM
- IC50 [5]: 40 nM
- Stability [6]: Unstable
- Stability [7]: Unstable

Structure (SMILES): Nc1cc(-c2cccc(-n3ccc4cc(C5CC5)cc(F)c4c3=O)c2CO)nc(Nc2cnn(CC3CC3)c2)n1
- IC50 [1]: 3.4 nM
- Papp [3]: 6.1 ×10⁻⁶ cm/s
- solubility kinetic at 1 h [10]: 6.3 µM (≈ 3.39 µg/mL)

Structure (SMILES): Nc1cc(-c2cccc(-n3ccc4cc(C5CC5)cc(F)c4c3=O)c2CO)nc(Nc2ccc(CN3CCOCC3)cc2)n1
- IC50 [1]: > 10000 nM
- IC50 [2]: 309 nM

Structure (SMILES): CN1CCN(c2ccc(Nc3nc(N)cc(-c4cccc(-n5ccc6cc(C7CC7)cc(F)c6c5=O)c4CO)n3)cc2)CC1
- IC50 [1]: 5.3 nM

Structure (SMILES): Nc1cc(-c2cccc(-n3ccc4cc(C5CC5)cc(F)c4c3=O)c2CO)nc(Nc2cn[nH]c2)n1
- IC50 [1]: 8.1 nM

Structure (SMILES): CC(C)n1cc(Nc2nc(N)cc(-c3cccc(-n4ccc5cc(C6CC6)cc(F)c5c4=O)c3CO)n2)cn1
- IC50 [1]: 2.6 nM
- IC50 [2]: 0.2 nM
- Papp [3]: 3.7 ×10⁻⁶ cm/s
- solubility kinetic at 1 h [10]: 4 µM (≈ 2.1 µg/mL)

Structure (SMILES): CCn1cc(Nc2nc(N)cc(-c3cccc(-n4ccc5cc(C6CC6)cc(F)c5c4=O)c3CO)n2)cn1
- IC50 [1]: 10 nM
- IC50 [2]: 0.4 nM
- Papp [3]: 5.4 ×10⁻⁶ cm/s
